Test results from US20180010188A1, “METHOD FOR DETECTING NONSENSE-MEDIATED RNA DECAY” (The Regents of the University of California, priority 2016, published 2018).

Tests used:
Perk transcripts = experiment: Perk transcript levels by RT-qPCR; format: cell-based, mouse; settings: thapsigargin in control siRNA-pretreated cells
Description: Two independent siRNAs reduced the endogenous Perk transcripts to around 20% (FIG. 4A).
Neuro-2a (N2a) cells were maintained in N2a complete media consisting of L-glutamine-free Dulbecco's modified Eagle's medium (DMEM), 10% FBS and 1× GlutaMAX at 37° C. Thapsigargin (VWR, cat. no. 89161-410), ionomycin (Fisher Scientific, cat. no. AG-CN2-0416-M001) and ouabain octahydrate (Fisher Scientific, cat. no. 80055-364) were dissolved in DMSO and stored at −80° C. For the application of these chemicals, 750,000 cells were plated on 35 mm BioLite TC plates and incubated with 2 ml of N2a complete media overnight before treatment with the drugs at the indicated concentrations. The cells were collected at 5 hours post-treatment unless otherwise specified. The PERK inhibitor GSK2606414 (Thermo Fisher, cat. no. 501016108) was dissolved in DMSO and stored at −20° C. N2a cells were incubated with GSK2606414 for 1 hour before thapsigargin treatment. For L-glutamine deprivation, 750,000 N2a cells were plated overnight and switched to L-glutamine-free DMEM with 10% FBS. […]
Trizol (Life Technologies, cat. no. 15596-018) was directly added to the cells or mouse brain tissues to extract total RNA following the Trizol Reagent standard protocol. […] RNA concentrations were measured using a Nanodrop 2000c (Thermo Fisher). […] Relative expression (fold changes) was calculated using the ΔΔCt method. […]

polysome integrity = experiment: Polysome fractionation by sucrose density gradient centrifugation; format: cell-based, mouse; settings: 5 hours, DMSO 30
Description: In addition to altering gene expression via the IRE1-Xbp1s signaling pathway to retain homeostasis, ER stress also reduces global protein synthesis (Harding et al., 1999. Nature 397: 271-274; Ron D. 2002. J Clin Invest 110: 1383-1388; Wek et al., 2006. Biochem Soc Trans 34: 7-11). The dose of thapsigargin inhibiting NMD was as low as 20 nM, whereas according to the literature, thapsigargin has been widely used at 1 μM to induce ER stress. To assess whether the NMD-inhibiting thapsigargin doses also repressed translation, we performed ribosome fractionation using sucrose density gradient centrifugation and examined polysome integrity as an indicator of translational activity. […] The heavier polysomes (>4 ribosomes) were affected the most and further collapsed with increasing doses of thapsigargin. Polysome disintegration was also accompanied by increasing optical density values of 80S. To quantify the dose effect of thapsigargin, we drew a line from the peak of the disome to the peak of the polysome consisting of roughly 8 ribosomes based on relative elution time. We measured the angle of this line relative to a horizontal line through the disome peak and used the angle as an indicator of polysome integrity. This angle was 30 for DMSO-treated cells and decreased to 0, −18, −20, −30 and −40 in response to increasing thapsigargin concentrations of 0.01, 0.02, 0.05, 0.1 and 0.2 μM, respectively.
For polysome fractionation, 1.5×10^7 N2a cells in 20 ml N2a complete media were plated on 150 mm petri dishes overnight and treated with varying concentrations of thapsigargin the next day. Cycloheximide (Fisher Scientific, cat. no. 50490338) was added at a concentration of 100 μg/ml, and the cells were incubated for 10 min at 37° C. before lysate collection. The cells were washed twice with 10 ml cold 1×PBS containing 100 μg/ml cycloheximide then collected in 4 ml of the same cold PBS solution. The cells were lysed with 0.5 ml lysis buffer (20 mM Tris pH 7.5, 100 mM KCl, 5 mM MgCl2, 2 mM DTT, 100 μg/ml cycloheximide, 1% Triton X-100, 50 u/ml RNaseout and 1×EDTA-free protease inhibitor cocktail). Roughly 400 μl ([…]) of lysate was loaded onto premade sucrose gradients (60% to 15%) and balanced (within 0.5 mg) before ultracentrifugation at 4° C. and 237,000 g (50,000 rpm for a SW55 Ti rotor) for 1.5 hours. Products were carefully removed from the ultracentrifuge and fractionated with the apparatus consisting of the gradient fractionator (Brandel SYN-202), the ISCO absorbance detector (ISCO # UA-6, Lincoln, Nebr.) and the fraction collector (R1 Fraction Collector) at 2.0 sensitivity and 150 cm/h chart speed to record absorbance data and collect fractionations.

C/C=C(/C)C(=O)O[C@H]1C(C)=C2[C@H]([C@@H]1OC(=O)CCCCCCC)[C@@](C)(OC(C)=O)C[C@H](OC(=O)CCC)[C@@]1(O)[C@H]2OC(=O)[C@@]1(C)O [thapsigargin]
Perk transcript levels (Perk transcripts): increased
angle of disome-to-8-ribosome peak line (polysome integrity) (polysome integrity; 0.01 μM): 0
angle of disome-to-8-ribosome peak line (polysome integrity) (polysome integrity; 0.02 μM): −18
angle of disome-to-8-ribosome peak line (polysome integrity) (polysome integrity; 0.05 μM): −20
angle of disome-to-8-ribosome peak line (polysome integrity) (polysome integrity; 0.1 μM): −30
angle of disome-to-8-ribosome peak line (polysome integrity) (polysome integrity; 0.2 μM): −40
